Values of other authors, collected in patent US7612202B2, “Process for preparing temozolomide” (Chemagis, Ltd., priority 2005, dated 2009).
Entries after “also recorded” stand apart in the source; their conditions may differ.

Experiments:
[1] = administered Temozolomide dose

stability at acidic pH (aqueous buffers, pH<5): stable | in vitro half-life (phosphate buffer at 37° C. and pH 7.4): 1.9 h | percentage of administered dose metabolized to TMA [1]: about 2%
SMILES: Cn1nnc2c(C(N)=O)ncn2c1=O [Temozolomide, 8-carbamoyl-3-methyl-imidazo[5,1-d]-1,2,3,5-tetrazin-4(3H)-one]
stability at pH>7 (aqueous buffers, pH>7): labile; also recorded: rapidly decomposes to MTIC
